Earlier results as cited in patent US20100137357A1, “COMPOSITIONS AND METHODS FOR HYPERHIDROSIS” (priority 2008, published 2010).

System: serous and seromucous glands
Details: humans, applied locally to the nasal mucosa

CC(C)[N+]1(C)[C@@H]2CC[C@H]1CC(OC(=O)C(CO)c1ccccc1)C2.[Br-] (stereo partly shown) [ipratropium bromide]
secretions from the serous and seromucous glands: inhibits secretions
